Assay results as given in patent US11357774B2, “Use of a quinoline sulfonyl compound for treatment of inflammation, inflammatory disorders, autoimmune disorders and malaria” (priority 2019, dated 2022).

What was measured:
[1] = biological target: β2 subunit of the proteasome 20S catalytic unit (Homo sapiens, UniProt Q99436); details: cited from earlier work
[2] = tested on: CQ-sensitive P. falciparum 3D7; experiment: Anti-parasitic assay (SYBR Green I), 3D7 strain; format: cell-based; details: Plasmodium falciparum, 3D7, 48 h
Description: (§1) The CQ-resistant P. falciparum ItG and the CQ-sensitive 3D7 strains were maintained and assays carried out as described previously^25. Briefly, P. falciparum strains were maintained in RPMI 1640 culture medium supplemented with 10% human serum, 25 mM HEPES, gentamicin, and 50 μM of hypoxanthine. The anti-parasitic assay was carried out as described previously^25. Briefly, a compound gradient was generated across a 96-well assay plate; a constant number of parasites added in 50 μL of the culture medium; allowed to grow for 48 hours; and followed by the measurement of DNA amounts (i.e., fluorescence) using SYBR Green I. The IC50 value is the 50% point between alive and dead for which a three-parameter fit was used.
(§2) VR23 is a derivative of CQ; a well-known anti-malarial drug. […] ItG and […] P. falciparum strains are CQ-resistant and CQ-sensitive strains, respectively. IC50 values were calculated by S.E.M (Table 2).

[3] = tested on: CQ-resistant P. falciparum ItG; experiment: Anti-parasitic assay (SYBR Green I), ItG strain; format: cell-based; details: Plasmodium falciparum, 48 h
Description: as §1, §2

[4] = tested on: myeloperoxidase (MPO) activity in right lung tissues; experiment: Myeloperoxidase assay in lung tissues of mice with LPS-induced ALI; format: in vivo, mouse; details: LPS 0.4 mg/kg, 24 hours, VR23 30 mg/kg intraperitoneally
Description: Six to eight week old female BALB/c mice strain 028 (Charles River Laboratories, QC, Canada) were fed regularly with laboratory chow and water upon arrival at the Laurentian University Animal Care Facility (Sudbury, ON, Canada). To determine a useful dose of LPS, three mice per group were treated for 24 hours with the following three different conditions: (i) no LPS, (ii) 0.25 mg of LPS per kg of body weight, and (iii) 0.50 mg of LPS per kg of body weight. The different concentrations of LPS were administered intranasally to the three BALB/c mice per concentration. After the animals were sacrificed, the bronchoalveolar lavage fluid (BALF) of each mouse was collected and analyzed for LPS-induced inflammatory responses. […] Experimental design involving the use of VR23 was based on a previous acute lung injury (ALI) instillation by Wei and Huang^26. Briefly, mice were divided into 5 groups, with 3-5 mice per group: no lung injury (i.e., no treat), sham treated, LPS-only, LPS+DEX, and LPS+VR23. […] Bronchoalveolar lavage fluid was collected and the number of cells infiltrated into the bronchoalveolar fluid were counted (FIG. 2). […]
The accumulation of neutrophils in the lung tissues was analyzed with a colorimetric MPO assay kit (Sigma Aldrich), which measures the amount of myeloperoxidase activity^26. […] The MPO activity was then determined as per the protocol provided by the supplier. […]

## O=[N+]([O-])c1ccc(S(=O)(=O)N2CCN(c3ccnc4cc(Cl)ccc34)CC2)c([N+](=O)[O-])c1 [VR23, 7-chloro-4-(4-(2,4-dinitrophenylsulfonyl)piperazin-1-yl)quinoline]
[1]
  proteasome inhibition: strong proteasome inhibitor
[2]
  IC50: 416 nM
[3]
  IC50: 117 nM
[4]
  myeloperoxidase (MPO) in lung tissues: strong inhibitor of MPO
